Test results published in patent US11053204B2, “Pyrimidinyloxy benzene derivatives as herbicides” (FMC Corporation, priority 2015, dated 2021).

What was measured:
Test in all cases: Test C preemergence, plant response rating
Type in all cases: in vivo
Settings in all cases: Preemergence
[1] = tested on: waterhemp (common waterhemp, Amaranthus rudis)
Text: (§1) Seeds of plant species selected from blackgrass (Alopecurus myosuroides), ryegrass, Italian (Italian ryegrass, Lolium multiflorum), wheat (winter wheat, Triticum aestivum), galium (catchweed bedstraw, Galium aparine), corn (Zea mays), crabgrass, large (large crabgrass, Digitaria sanguinalis), foxtail, giant (giant foxtail, Setaria faberii), johnsongrass (Sorghum halepense), lambsquarters (Chenopodium album), morningglory (Ipomoea coccinea), nutsedge, yellow (yellow nutsedge, Cyperus esculentus), pigweed (Amaranthus retroflexus), ragweed (common ragweed, Ambrosia elatior), soybean (Glycine max), barnyardgrass (Echinochloa crus-galli), oilseed rape (Brassica napus), pigweed, palmer (palmer pigweed, Amaranthus palmeri), waterhemp (common waterhemp, Amaranthus rudis), velvetleaf (Abutilon theophrasti), kochia (Kochia scoparia), surinam grass (Brachiaria decumbens), nightshade (eastern black nightshade, Solanum ptycanthum), wild poinsettia (Euphorbia heterophylla), windgrass (Apera spica-venti), and oat, wild (wild oat Avena fatua), were planted into a blend of loam soil and sand or a silt loam soil and treated preemergence with test chemicals formulated in a non-phytotoxic solvent mixture which included a surfactant.
(§2) At the same time, plants selected from these crop and weed species and also chickweed (common chickweed, Stellaria media), buckwheat, wild (wild buckwheat, Polygonum convolvulus), wild mustard (Sinapis arvensis), field poppy (Papaver rhoeas), field violet (Viola arvensis), geranium, cutleaf (cutleaf geranium, Geranium dissectum), Canada thistle (Cirsium arvense), and speedwell (bird's-eye speedwell, Veronica persica), were planted in pots containing Sunshine Redi-Earth® planting medium comprising spaghnum peat moss, vermiculite, starter nutrients and dolomitic limestone and treated with postemergence applications of test chemicals formulated in the same manner. Plants ranged in height from 2 to 18 cm (1- to 4-leaf stage) for postemergence treatments. Treated plants and controls were maintained in a greenhouse for 13 to 15 d, after which time all species were compared to controls and visually evaluated. Plant response ratings, summarized in Table C, are based on a scale of 0 to 100 where 0 is no effect and 100 is complete control. A dash (-) response means no test result.

[2] = tested on: crabgrass, large (large crabgrass, Digitaria sanguinalis)
Text: as §1, §2

[3] = tested on: blackgrass (Alopecurus myosuroides)
Text: as §1, §2

[4] = tested on: morningglory (Ipomoea coccinea)
Text: as §1, §2

[5] = tested on: wheat (winter wheat, Triticum aestivum)
Text: as §1, §2

[6] = tested on: ragweed (common ragweed, Ambrosia elatior)
Text: as §1, §2

[7] = tested on: oilseed rape (Brassica napus)
Text: as §1, §2

[8] = tested on: nutsedge, yellow (yellow nutsedge, Cyperus esculentus)
Text: as §1, §2

[9] = tested on: foxtail, giant (giant foxtail, Setaria faberii)
Text: as §1, §2

[10] = tested on: ryegrass, Italian (Italian ryegrass, Lolium multiflorum)
Text: as §1, §2

[11] = tested on: soybean (Glycine max)
Text: as §1, §2

[12] = tested on: velvetleaf (Abutilon theophrasti)
Text: as §1, §2

[13] = tested on: corn (Zea mays)
Text: as §1, §2

[14] = tested on: lambsquarters (Chenopodium album)
Text: as §1, §2

## N#Cc1cccc(Oc2ncc(Cl)cn2)c1C(=O)OCCC(F)(F)F [Compound 30]
[1]; 125 g ai/ha, scale of 0 to 100
  Plant response rating, Waterhemp: 100
[1]; 16 g ai/ha, scale 0 to 100
  Plant response rating, Waterhemp: 85
[1]; 31 g ai/ha, scale 0 to 100
  Plant response rating, Waterhemp: 100
[1]; 62 g ai/ha, scale 0 to 100
  Plant response rating, Waterhemp: 100
[2]; 62 g ai/ha, scale of 0 to 100
  Plant response rating, Crabgrass, Large: 80
[2]; 125 g ai/ha, scale of 0 to 100
  Plant response rating, Crabgrass, Large: 98
[2]; 16 g ai/ha, scale 0 to 100
  Plant response rating, Crabgrass, Large: 0
[2]; 31 g ai/ha, scale 0 to 100
  Plant response rating, Crabgrass, Large: 35
[3]; 62 g ai/ha, scale of 0 to 100
  Plant response rating, Blackgrass: 0
[3]; 125 g ai/ha, scale of 0 to 100
  Plant response rating, Blackgrass: 0
[3]; 16 g ai/ha, scale 0 to 100
  Plant response rating, Blackgrass: 0
[3]; 31 g ai/ha, scale 0 to 100
  Plant response rating, Blackgrass: 0
[4]; 125 g ai/ha, scale of 0 to 100
  Plant response rating, Morningglory: 35
[4]; 16 g ai/ha, scale 0 to 100
  Plant response rating, Morningglory: 0
[4]; 31 g ai/ha, scale 0 to 100
  Plant response rating, Morningglory: 10
[4]; 62 g ai/ha, scale 0 to 100
  Plant response rating, Morningglory: 10
[5]; 125 g ai/ha, scale of 0 to 100
  Plant response rating, Wheat: 10
[5]; 16 g ai/ha, scale 0 to 100
  Plant response rating, Wheat: 0
[5]; 31 g ai/ha, scale 0 to 100
  Plant response rating, Wheat: 0
[5]; 62 g ai/ha, scale 0 to 100
  Plant response rating, Wheat: 0
[6]; 125 g ai/ha, scale of 0 to 100
  Plant response rating, Ragweed: 0
[6]; 16 g ai/ha, scale 0 to 100
  Plant response rating, Ragweed: 0
[6]; 31 g ai/ha, scale 0 to 100
  Plant response rating, Ragweed: 0
[6]; 62 g ai/ha, scale 0 to 100
  Plant response rating, Ragweed: 0
[7]; 125 g ai/ha, scale of 0 to 100
  Plant response rating, Oilseed Rape: 100
[7]; 16 g ai/ha, scale 0 to 100
  Plant response rating, Oilseed Rape: 10
[7]; 31 g ai/ha, scale 0 to 100
  Plant response rating, Oilseed Rape: 55
[7]; 62 g ai/ha, scale 0 to 100
  Plant response rating, Oilseed Rape: 100
[8]; 125 g ai/ha, scale of 0 to 100
  Plant response rating, Nutsedge, Yellow: 5
[8]; 16 g ai/ha, scale 0 to 100
  Plant response rating, Nutsedge, Yellow: 0
[8]; 31 g ai/ha, scale 0 to 100
  Plant response rating, Nutsedge, Yellow: 0
[8]; 62 g ai/ha, scale 0 to 100
  Plant response rating, Nutsedge, Yellow: 0
[9]; 62 g ai/ha, scale of 0 to 100
  Plant response rating, Foxtail, Giant: 65
[9]; 125 g ai/ha, scale of 0 to 100
  Plant response rating, Foxtail, Giant: 75
[9]; 16 g ai/ha, scale 0 to 100
  Plant response rating, Foxtail, Giant: 5
[9]; 31 g ai/ha, scale 0 to 100
  Plant response rating, Foxtail, Giant: 30
[10]; 125 g ai/ha, scale of 0 to 100
  Plant response rating, Ryegrass, Italian: 5
[10]; 16 g ai/ha, scale 0 to 100
  Plant response rating, Ryegrass, Italian: 0
[10]; 31 g ai/ha, scale 0 to 100
  Plant response rating, Ryegrass, Italian: 0
[10]; 62 g ai/ha, scale 0 to 100
  Plant response rating, Ryegrass, Italian: 0
[11]; 125 g ai/ha, scale of 0 to 100
  Plant response rating, Soybean: 60
[11]; 16 g ai/ha, scale 0 to 100
  Plant response rating, Soybean: 0
[11]; 62 g ai/ha, scale 0 to 100
  Plant response rating, Soybean: 10
[12]; 125 g ai/ha, scale of 0 to 100
  Plant response rating, Velvetleaf: 40
[12]; 16 g ai/ha, scale 0 to 100
  Plant response rating, Velvetleaf: 0
[12]; 31 g ai/ha, scale 0 to 100
  Plant response rating, Velvetleaf: 0
[12]; 62 g ai/ha, scale 0 to 100
  Plant response rating, Velvetleaf: 10
[13]; 62 g ai/ha, scale of 0 to 100
  Plant response rating, Corn: 0
[13]; 125 g ai/ha, scale of 0 to 100
  Plant response rating, Corn: 5
[13]; 16 g ai/ha, scale 0 to 100
  Plant response rating, Corn: 0
[13]; 31 g ai/ha, scale 0 to 100
  Plant response rating, Corn: 0
[14]; 125 g ai/ha, scale of 0 to 100
  Plant response rating, Lambsquarters: 55
[14]; 16 g ai/ha, scale 0 to 100
  Plant response rating, Lambsquarters: 10
[14]; 31 g ai/ha, scale 0 to 100
  Plant response rating, Lambsquarters: 25
[14]; 62 g ai/ha, scale 0 to 100
  Plant response rating, Lambsquarters: 30
